From doi:10.1101/2023.06.30.547126, “FruitFire: a luciferase based on a fruit fly metabolic enzyme” (bioRxiv, 2023)

Experiments:
[1] = biological target: T1, Fluc (Photinus pyralis, UniProt P08659); experiment: live-cell bioluminescence imaging (IVIS-100); format: cell-based; details: transfected CHO cells, 0.122-250 μM substrate
T1 construct: luc2 gene in pcDNA3.1, transfected CHO cells

[2] = biological target: T2, CG6178 (Drosophila melanogaster, UniProt Q9VCC6); experiment: X-ray crystal structure, […] Å; format: binding; details: active site; co-purified fatty acid adenylated with 10 mM ATP, ligand modelled as best fit to density; pH 7.5, 25 °C
T2 construct: gene Dmel\CG6178; full length, 544 residues; GST fusion from pGEX-6P-1 in E. coli BL21(DE3), GST cleaved with PreScission protease
T2 sequence (Q9VCC6 1-544): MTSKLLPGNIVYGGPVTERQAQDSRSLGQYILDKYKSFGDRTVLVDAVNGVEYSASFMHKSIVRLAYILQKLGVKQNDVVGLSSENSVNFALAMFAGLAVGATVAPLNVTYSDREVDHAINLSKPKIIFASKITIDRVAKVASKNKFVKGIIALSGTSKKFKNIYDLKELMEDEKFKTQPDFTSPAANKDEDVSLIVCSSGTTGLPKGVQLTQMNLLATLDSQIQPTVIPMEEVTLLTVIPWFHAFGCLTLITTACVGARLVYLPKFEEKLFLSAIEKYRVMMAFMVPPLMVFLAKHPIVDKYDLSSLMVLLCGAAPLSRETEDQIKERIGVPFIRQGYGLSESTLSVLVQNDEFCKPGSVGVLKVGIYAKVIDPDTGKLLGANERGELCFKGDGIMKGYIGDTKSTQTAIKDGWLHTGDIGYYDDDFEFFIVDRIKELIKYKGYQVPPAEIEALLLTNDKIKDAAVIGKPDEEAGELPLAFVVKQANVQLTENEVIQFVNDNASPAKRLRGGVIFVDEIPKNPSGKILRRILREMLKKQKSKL

T1 sequence (P08659 whole entry): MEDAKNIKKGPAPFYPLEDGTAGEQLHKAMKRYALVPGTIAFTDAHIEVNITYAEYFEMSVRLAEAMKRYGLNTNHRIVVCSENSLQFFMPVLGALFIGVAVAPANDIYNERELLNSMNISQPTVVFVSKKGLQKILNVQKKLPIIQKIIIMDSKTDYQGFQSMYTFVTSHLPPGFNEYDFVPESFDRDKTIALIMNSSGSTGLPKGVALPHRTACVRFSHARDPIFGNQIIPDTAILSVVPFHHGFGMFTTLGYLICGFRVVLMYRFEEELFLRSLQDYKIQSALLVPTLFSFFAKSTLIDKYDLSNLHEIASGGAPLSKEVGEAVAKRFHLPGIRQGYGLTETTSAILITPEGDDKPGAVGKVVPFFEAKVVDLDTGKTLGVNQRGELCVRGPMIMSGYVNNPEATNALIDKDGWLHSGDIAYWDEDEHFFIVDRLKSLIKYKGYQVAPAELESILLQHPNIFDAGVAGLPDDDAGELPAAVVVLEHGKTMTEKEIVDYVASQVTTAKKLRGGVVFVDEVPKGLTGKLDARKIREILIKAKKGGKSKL

SMILES | live-cell bioluminescence imaging (IVIS-100) [1] | X-ray crystal structure, 2.5 Å [2]
CN1CCc2cc3nc(C4=N[C@@H](C(=O)O)CS4)sc3cc21 [CycLuc2] | relative performance of all three enzymes with CycLuc2 | –
CCCCCCCC(=O)OP(=O)(O)OC[C@H]1O[C@@H](n2cnc3c(N)ncnc32)[C@H](O)[C@@H]1O [octanoyl-AMP] | – | octanoyl-AMP (C8) and an ethylene glycol in the active site is most consistent with the data
